Data: US10285979B2, “Breast cancer therapeutic agent containing 5′-hydroxy-5-nitro-indirubin-3′-oxime as active ingredient” (ANYGEN CO., LTD., priority 2016, dated 2019)

Tests used:
cancer cell = settings: DAPI staining
Source text: Further, we have examined the apoptotic body stained with DAPI using a fluorescence microscope to investigate the induction of apoptosis by AGM-130.

UACC-257 = settings: 10 μM; malignant melanoma cell line UACC-257
Source text: (§1) If the growth percent is 0%, it means that no further growth of cancer cells occurs, which is an ideal case.

NCI-H460 = settings: 10 μM; non-small cell lung cancer cell line NCI-H460
Source text: as §1

SW-620 = settings: 10 μM; colorectal cancer cell line SW-620
Source text: as §1

NCI-H23 = settings: 10 μM; non-small cell lung cancer cell line NCI-H23
Source text: as §1

M14 = settings: 10 μM; malignant melanoma cell line M14
Source text: as §1

CCRE-CEM = settings: 10 μM; leukemia cell line CCRE-CEM
Source text: as §1

SF-295 = settings: 10 μM; CNS cancer cell line SF-295
Source text: as §1

KM12 = settings: 10 μM; colorectal cancer cell line KM12
Source text: as §1

T-47D = settings: 10 μM; breast cancer cell line T-47D
Source text: as §1

RPMI-8226 = settings: 10 μM; leukemia cell line RPMI-8226
Source text: as §1

OVCAR-5 = settings: 10 μM; ovarian cancer cell line OVCAR-5
Source text: as §1

NCI-H322M = settings: 10 μM; non-small cell lung cancer cell line NCI-H322M
Source text: as §1

SNB-19 = settings: 10 μM; CNS cancer cell line SNB-19
Source text: as §1

U251 = settings: 10 μM; CNS cancer cell line U251
Source text: as §1

SK-OV-3 = settings: 10 μM; ovarian cancer cell line SK-OV-3
Source text: as §1

SK-MEL-2 = settings: 10 μM; malignant melanoma cell line SK-MEL-2
Source text: as §1

ACHN = settings: 10 μM; renal cell carcinoma cell line ACHN
Source text: as §1

MDA-MB-435 = settings: 10 μM; malignant melanoma cell line MDA-MB-435
Source text: as §1

HOP-62 = settings: 10 μM; non-small cell lung cancer cell line HOP-62
Source text: as §1

IGROV1 = settings: 10 μM; ovarian cancer cell line IGROV1
Source text: as §1

A549/ATCC = settings: 10 μM; non-small cell lung cancer cell line A549/ATCC
Source text: as §1

SR = settings: 10 μM; leukemia cell line SR
Source text: as §1

SF-268 = settings: 10 μM; CNS cancer cell line SF-268
Source text: as §1

COLO 205 = settings: 10 μM; colorectal cancer cell line COLO 205
Source text: as §1

PC-3 = settings: 10 μM; prostate cancer cell line PC-3
Source text: as §1

HCT-116 = settings: 10 μM; colorectal cancer cell line HCT-116
Source text: as §1

MDA-MB-231 = settings: 10 μM; breast cancer cell line MDA-MB-231
Source text: as §1

SNB-75 = settings: 10 μM; CNS cancer cell line SNB-75
Source text: as §1

A498 = settings: 10 μM; renal cell carcinoma cell line A498
Source text: as §1

BT-549 = settings: 10 μM; breast cancer cell line BT-549
Source text: as §1

OVCAR-3 = settings: 10 μM; ovarian cancer cell line OVCAR-3
Source text: as §1

NCI-H226 = settings: 10 μM; non-small cell lung cancer cell line NCI-H226
Source text: as §1

MOLT-4 = settings: 10 μM; leukemia cell line MOLT-4
Source text: as §1

OVCAR-8 = settings: 10 μM; ovarian cancer cell line OVCAR-8
Source text: as §1

CAKI-1 = settings: 10 μM; renal cell carcinoma cell line CAKI-1
Source text: as §1

SF-539 = settings: 10 μM; CNS cancer cell line SF-539
Source text: as §1

Q: With O=C1Nc2ccc([N+](=O)[O-])cc2C1=C1Nc2ccc(O)cc2C1=NO [AGM-130, (2′Z 3′E)-5′-hydroxy-5-nitro indirubin oxime] as the molecule, how does the induction of apoptosis (cancer cell) read?
A: mitochondria-dependent apoptosis

Q: What about the Growth percent (UACC-257) of the same molecule?
A: 9.29%

Q: What about the Growth percent (NCI-H460) of the same molecule?
A: −28.47%

Q: What about the Growth percent (SW-620) of the same molecule?
A: 3.18%

Q: And the Growth percent (NCI-H23)?
A: 3.19%

Q: And the Growth percent (M14)?
A: 11.37%

Q: What about the Growth percent (CCRE-CEM) of the same molecule?
A: 0.49%

Q: And the Growth percent (SF-295)?
A: 20.93%

Q: What about the Growth percent (KM12) of the same molecule?
A: −32.96%

Q: And the Growth percent (T-47D)?
A: 16.80%

Q: What about the Growth percent (RPMI-8226) of the same molecule?
A: −7.92%

Q: And the Growth percent (OVCAR-5)?
A: 11.33%

Q: And the Growth percent (NCI-H322M)?
A: 7.21%

Q: What about the Growth percent (SNB-19) of the same molecule?
A: 17.47%

Q: And the Growth percent (U251)?
A: 0.60%

Q: What about the Growth percent (SK-OV-3) of the same molecule?
A: −9.52%

Q: What about the Growth percent (SK-MEL-2) of the same molecule?
A: −55.01%

Q: And the Growth percent (ACHN)?
A: −25.79%

Q: What about the Growth percent (MDA-MB-435) of the same molecule?
A: 9.35%

Q: What about the Growth percent (HOP-62) of the same molecule?
A: −9.77%

Q: And the Growth percent (IGROV1)?
A: 6.36%

Q: What about the Growth percent (A549/ATCC) of the same molecule?
A: 10.64%

Q: And the Growth percent (SR)?
A: 0.38%

Q: And the Growth percent (SF-268)?
A: 6.50%

Q: What about the Growth percent (COLO 205) of the same molecule?
A: 65.80%

Q: What about the Growth percent (PC-3) of the same molecule?
A: 2.12%

Q: And the Growth percent (HCT-116)?
A: 2.29%

Q: What about the Growth percent (MDA-MB-231) of the same molecule?
A: 25.45%

Q: What about the Growth percent (SNB-75) of the same molecule?
A: −28.05%

Q: What about the Growth percent (A498) of the same molecule?
A: −24.52%

Q: And the Growth percent (BT-549)?
A: 4.59%

Q: What about the Growth percent (OVCAR-3) of the same molecule?
A: 4.31%

Q: What about the Growth percent (NCI-H226) of the same molecule?
A: −4.70%

Q: What about the Growth percent (MOLT-4) of the same molecule?
A: 2.17%

Q: What about the Growth percent (OVCAR-8) of the same molecule?
A: 7.71%

Q: And the Growth percent (CAKI-1)?
A: −14.28%

Q: What about the Growth percent (SF-539) of the same molecule?
A: −34.15%
